From ChEMBL document CHEMBL4052736, “Synthesis, antioxidant, antifungal, molecular docking and ADMET studies of some thiazolyl hydrazones” (Bioorg Med Chem Lett, 2017) come the findings set out here.

Type in all cases: functional
Experiment [1] is described as follows: Antioxidant activity assessed as H2O2 free radical scavenging activity by spectrophotometric analysis.
Experiment [2] deals with Aspergillus niger. The experiment is described as follows: Antifungal activity against Aspergillus niger assessed as zone of inhibition at 100 ug/ml measured after 24 hrs by well diffusion method. The conditions noted are these: read-out: IZ. In general terms: In agar diffusion tests the substance spreads into inoculated agar from a disc or well.
In experiment [3] the test system is Aspergillus flavus. In words: Antifungal activity against Aspergillus flavus assessed as zone of inhibition at 50 ug/ml measured after 24 hrs by well diffusion method. The following applies: read-out: IZ.
A short description of experiment [4]: Antioxidant activity assessed as DPPH free radical scavenging activity at 20 ug/ml after 15 mins by spectrophotometric method. Background: DPPH is a stable violet radical that fades when it is reduced.
Experiment [5] deals with Aspergillus flavus. In words: Antifungal activity against Aspergillus flavus assessed as zone of inhibition at 25 ug/ml measured after 24 hrs by well diffusion method. The conditions noted are these: read-out: IZ.
Experiment [6] is described as follows: Antioxidant activity assessed as DPPH free radical scavenging activity at 100 ug/ml after 15 mins by spectrophotometric method.
In experiment [7] the test system is Aspergillus niger. In words: Antifungal activity against Aspergillus niger assessed as zone of inhibition at 25 ug/ml measured after 24 hrs by well diffusion method. The conditions noted are these: read-out: IZ.
Experiment [8] in a line: Antioxidant activity assessed as DPPH free radical scavenging activity at 80 ug/ml after 15 mins by spectrophotometric method.
Experiment [9] in a line: Antioxidant activity assessed as H2O2 free radical scavenging activity at 60 ug/ml after 10 to 15 mins by spectrophotometric analysis.
Experiment [10] can be described thus: Antioxidant activity assessed as H2O2 free radical scavenging activity at 20 ug/ml after 10 to 15 mins by spectrophotometric analysis.
For experiment [11], the system named is Aspergillus flavus. In words: Antifungal activity against Aspergillus flavus after 24 hrs by well diffusion method.
Experiment [12] in a line: Antioxidant activity assessed as H2O2 free radical scavenging activity at 80 ug/ml after 10 to 15 mins by spectrophotometric analysis.
Experiment [13] in a line: Antioxidant activity assessed as DPPH free radical scavenging activity measured after 15 mins by spectrophotometric method.
Experiment [14] deals with Candida albicans. The experiment is described as follows: Antifungal activity against Candida albicans assessed as zone of inhibition at 25 ug/ml measured after 24 hrs by well diffusion method. The conditions noted are these: read-out: IZ.
In experiment [15] the test system is Aspergillus niger. In words: Antifungal activity against Aspergillus niger after 24 hrs by well diffusion method.
The nature of experiment [16]: Antioxidant activity assessed as H2O2 free radical scavenging activity at 100 ug/ml after 10 to 15 mins by spectrophotometric analysis.
Experiment [17] relates to Candida albicans. In words: Antifungal activity against Candida albicans assessed as zone of inhibition at 50 ug/ml measured after 24 hrs by well diffusion method. The following applies: read-out: IZ.
Experiment [18] has as its system Candida albicans. In words: Antifungal activity against Candida albicans after 24 hrs by well diffusion method.
The nature of experiment [19]: Antioxidant activity assessed as H2O2 free radical scavenging activity at 40 ug/ml after 10 to 15 mins by spectrophotometric analysis.
Experiment [20] can be described thus: Antioxidant activity assessed as DPPH free radical scavenging activity at 40 ug/ml after 15 mins by spectrophotometric method.
The nature of experiment [21]: Antioxidant activity assessed as DPPH free radical scavenging activity at 60 ug/ml after 15 mins by spectrophotometric method.
Experiment [22] deals with Aspergillus flavus. The experiment is described as follows: Antifungal activity against Aspergillus flavus assessed as zone of inhibition at 100 ug/ml measured after 24 hrs by well diffusion method. The conditions noted are these: read-out: IZ.
For experiment [23], the system named is Candida albicans. The experiment is described as follows: Antifungal activity against Candida albicans assessed as zone of inhibition at 100 ug/ml measured after 24 hrs by well diffusion method. The following applies: read-out: IZ.
The subject of experiment [24] is Aspergillus niger. In words: Antifungal activity against Aspergillus niger assessed as zone of inhibition at 50 ug/ml measured after 24 hrs by well diffusion method. The following applies: read-out: IZ.

Values after ≈ are worked out from the molar mass of the structure shown.

A word on the IC50: it is the concentration needed to halve the response being measured. As a reminder, the inhibition is how much of the control response was suppressed. As usually defined, the MIC is the least concentration at which growth counts as inhibited. Low readings indicate greater potency, high ones weaker potency. For `Clc1ccc(/C=N/Nc2nc(-c3ccccc3)cs2)c(Cl)c1`, the values for the concentration for half-maximal inhibition (IC50) in [1] and in experiment [13] were 43.712 µg/mL (≈ 126 µM) and 29.307 µg/mL (≈ 84.2 µM), respectively. Further, the zone of inhibition at 100 µg/mL in experiment [2] turned out to be 11 mm; in [22], 25 mm; in [23], 15 mm. In addition, the zone of inhibition at 50 µg/mL in experiment [3] amounted to 15 mm; in [17], 14 mm; in experiment [24], 10 mm. The inhibition in experiment [4] was 76.6%; in [6] it was 95.8%; in [8], 92.6%; in [9] it was 80.4%; in experiment [10], 78.1%; in experiment [12], 83.1%. The inhibition is 87.4% in experiment [16], 78.9% in [19], 90.2% in [20] and 92.8% in [21]. The figures for the zone of inhibition at 25 µg/mL in experiment [5], in experiment [7] and in [14] were 12 mm, 8 mm and 12 mm, respectively. Further, the figures for the MIC in experiment [11], in experiment [15] and in experiment [18] were less than 3.12 µg/mL, 12.5 µg/mL (≈ 35.9 µM) and 3.12 µg/mL (≈ 8.96 µM), respectively.

As to `Clc1ccc(-c2csc(N/N=C/c3ccc(Cl)cc3Cl)n2)cc1`, the IC50 in [1] came out at 43.537 µg/mL (≈ 114 µM); in [13], 32.224 µg/mL (≈ 84.2 µM). For the same molecule, the zone of inhibition at 100 µg/mL in [2] came to 17 mm; in [22], 16 mm; in [23], 18 mm. Moreover, the zone of inhibition at 50 µg/mL in [3] was found to be 15 mm; in experiment [17] it was 15 mm; in experiment [24], 13 mm. In addition, the inhibition in experiment [4] stood at 73.9%; in experiment [6] it was 92.4%; in experiment [8] it was 92.3%; in [9], 80.4%; in [10], 76%; in [12] it was 83.1%. In addition, the inhibition in [16] stood at 84.4%; in experiment [19], 76.2%; in experiment [20] it was 85.9%; in experiment [21] it was 88.9%. Also, the figures for the zone of inhibition at 25 µg/mL in experiment [5], in [7] and in experiment [14] were 12 mm, 12 mm and 10 mm, respectively. For the same molecule, the minimum inhibitory concentration (MIC) in [11] came out at 6.25 µg/mL (≈ 16.3 µM); in experiment [15], 6.12 µg/mL (≈ 16 µM); in experiment [18] it was 3.12 µg/mL (≈ 8.15 µM).

For the molecule `OC(Cn1cncn1)(Cn1cncn1)c1ccc(F)cc1F` [FLUCONAZOLE], the zone of inhibition at 100 µg/mL is 25 mm in experiment [2], 20 mm in [22] and 28 mm in [23]. For the same molecule, the results for the zone of inhibition at 50 µg/mL in experiment [3], in [17] and in experiment [24] were 18 mm, 22 mm and 20 mm, respectively. The zone of inhibition at 25 µg/mL in [5] was 15 mm; in [7], 14 mm; in [14], 15 mm. Moreover, the MIC in experiment [11], in experiment [15] and in experiment [18] was less than 3.12 µg/mL throughout.

For `C(=N\Nc1nc(-c2ccccc2)cs1)/c1cccs1`, the half-maximal inhibitory concentration (IC50) in [1] stood at 31.03 µg/mL (≈ 109 µM); in [13], 26.008 µg/mL (≈ 91.1 µM). Besides, the zone of inhibition at 100 µg/mL was 10 mm in experiment [2], 15 mm in experiment [22] and 12 mm in [23]. For the same molecule, the figures for the zone of inhibition at 50 µg/mL in experiment [3], in experiment [17] and in experiment [24] were 12 mm, 10 mm and 8 mm, respectively. Moreover, the inhibition in experiment [4] is 95.5%; in [6], 96.8%; in experiment [8] it was 97.1%; in experiment [9], 91%; in experiment [10] it was 87.5%; in experiment [12], 92.4%. In addition, the inhibition in [16] stood at 94%; in experiment [19], 90%; in experiment [20] it was 95.8%; in experiment [21], 97.6%. Besides, the zone of inhibition at 25 µg/mL in [5] stood at 8 mm; in [7], 6 mm; in experiment [14] it was 6 mm. Further, the minimum inhibitory concentration (MIC) in experiment [15] turned out to be 25 µg/mL (≈ 87.6 µM); in experiment [18], 12.5 µg/mL (≈ 43.8 µM).

Regarding `Fc1ccc(-c2csc(N/N=C/c3cccs3)n2)cc1`, the IC50 in experiment [1] worked out at 35.206 µg/mL (≈ 116 µM); in [13] it was 44.12 µg/mL (≈ 145 µM). Further, the zone of inhibition at 100 µg/mL in experiment [2] is 13 mm; in experiment [22], 6 mm; in experiment [23] it was 15 mm. The zone of inhibition at 50 µg/mL was determined as 6 mm in experiment [3], 14 mm in experiment [17] and 10 mm in experiment [24]. For the same molecule, the inhibition in [4] is 92.4%; in [6], 97%; in experiment [8], 66.3%; in experiment [9], 90.3%; in [10] it was 84.2%; in [12] it was 91.9%. Further, the inhibition in experiment [16] was determined as 92.4%; in experiment [19] it was 87.5%; in experiment [20] it was 93.3%; in experiment [21] it was 94.6%. Besides, the figures for the zone of inhibition at 25 µg/mL in experiment [5], in [7] and in [14] were 6 mm, 6 mm and 12 mm, respectively. The minimal inhibitory concentration (MIC) in experiment [15] was 25 µg/mL (≈ 82.4 µM); in experiment [18], 6.25 µg/mL (≈ 20.6 µM).
